According to patent US8399689B2, “Chrysophaentin antimicrobial compounds that inhibit FtsZ protein” (The United States of America, as represented by the …, priority 2010, dated 2013):
Converted amounts (≈) assume the structure as drawn. “Also recorded” adds a separate entry of the source.

Tests used:
[1] = tested on: Staphylococcus aureus (SA, ATCC 25923); test: Microbroth dilution assay, S. aureus; format: cell-based; conditions: concentration at which growth is reduced by 50%; for MIC50 (μg/mL) S. aureus: microbroth dilution
Method: (§1) Compounds 1-8 were tested for antimicrobial activity against Staphylococcus aureus (SA, ATCC 25923), methicillin-resistant S. aureus (MRSA, ATCC BAA-41), multidrug-resistant S. aureus (MDRSA, ATCC BAA-44), Enterococcus faecium (EF, ATCC 49032), vancomycin-resistant E. Faecium (VRE, ATCC 700221), and Bacillus subtilis (ATCC 49343) using a modified disk diffusion assay and microbroth liquid dilution assays. For disk diffusion assays, agar plates seeded with suspensions of bacteria were prepared by adding 500 μL of a 24 h culture of bacteria to 100 mL of autoclaved Mueller Hinton II agar and cooled to 55° C. Seeded liquid agar (10 mL) was transferred immediately to square Petri dishes and allowed to cool for 1 h. Control drugs used for each microorganism included kanamycin (50 μg) for S. aureus, and nitrofurantoin (25 μg) for MRSA. Following incubation at 37° C. for 18 h, zones of inhibition were measured. MICso values for compounds 1 and 4-8 were determined using a microbroth dilution assay outlined in the Clinical and Laboratory Standards Institute methods for susceptibility tests for bacteria that grow aerobically. Briefly, single bacterial colonies were used to inoculate 4 mL of Trypticase Soy broth (BD) for overnight growth and inoculum for each were diluted to 5×10^5 CFU/mL using the 0.5 McFarland standard. In a 96 well plate (Costar, round bottom), control antibiotics (oxacillin for SA and MRSA, vancomycin for EF and VRE, chloramphenicol for B. subtilis) or natural product inhibitors were added to Muller Hinton II broth (for S. aureus, MRSA, and B. subtilis) or 10% brain heart infusion broth (for E. faecium and VRE) in the first column of the well plates, and serially diluted across the plate, reserving wells for a positive growth control (no treatment). 10 μL of diluted bacteria were added to all wells with the exception of those kept for broth blanks (MHII or brain heart infusion broth only). Plates were incubated at 37° C. overnight and read at absorbance 600 nm on a Molecular Devices plate reader. Growth curves were plotted and ICso values obtained using Kalidagraph software.

[2] = tested on: vancomycin-resistant E. Faecium (VRE, ATCC 700221); test: Agar disk diffusion assay, VREF; format: cell-based, Enterococcus faecium
Method: as §1

[3] = tested on: methicillin-resistant S. aureus (MRSA, ATCC BAA-41); test: Microbroth dilution assay, MRSA; format: cell-based, Staphylococcus aureus; conditions: microbroth dilution, concentration at which growth is reduced by 50%
Method: as §1

recombinant E. coli FtsZ = recombinant E. coli FtsZ (Escherichia coli, UniProt P0A9A6); test: FtsZ GTPase colorimetric (malachite green) assay; format: biochemical; conditions: 2 μM FtsZ, 0.25 mM GTP, pH 6.5
Chain of recombinant E. coli FtsZ (P0A9A6 whole entry): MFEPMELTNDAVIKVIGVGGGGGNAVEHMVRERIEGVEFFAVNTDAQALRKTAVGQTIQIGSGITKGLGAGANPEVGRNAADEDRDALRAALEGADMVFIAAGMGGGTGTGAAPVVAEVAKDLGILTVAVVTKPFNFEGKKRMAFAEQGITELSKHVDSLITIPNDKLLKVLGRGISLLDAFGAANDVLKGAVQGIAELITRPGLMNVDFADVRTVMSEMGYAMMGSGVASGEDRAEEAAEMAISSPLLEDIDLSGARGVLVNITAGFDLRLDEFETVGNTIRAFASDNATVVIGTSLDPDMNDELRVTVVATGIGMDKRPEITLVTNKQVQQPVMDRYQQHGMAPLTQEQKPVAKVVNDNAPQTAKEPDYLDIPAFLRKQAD
Method: Solutions were incubated at room temperature for 5 min, followed by addition of 0.25 mM GTP. At the end of a 20-min incubation period, enzyme activity was quenched by addition of 50 μL Malachite Green solution and the wells read at A^625 on an absorbance plate reader.

[4] = tested on: control mammalian cell line BSC-1; test: Cytotoxicity, BSC-1 control cells; format: cell-based; conditions: no cytotoxicity at concentrations as high as
tubulin = test: Tubulin polymerization assay; format: biochemical; conditions: for effect on tubulin polymerization: at 150 μM, 15 times its IC50 for FtsZ

Oc1cc(O)c2c(c1)C/C(Cl)=C\Cc1cc(c(Cl)cc1O)Oc1c(O)cc(cc1O)C/C(Cl)=C\Cc1cc(c(Cl)cc1O)O2 [Compound 1, chrysophaentin 1]
MIC50 ([1]; Staphylococcus aureus, ATCC25923, microbroth dilution, read-out: MIC50 (μg/mL) S. aureus): 1.8 ± 0.6 µg/mL (≈ 2.65 µM)
MIC50 (μg/mL) S. aureus [1]: 1.8 ± 0.6 µg/mL (≈ 2.65 µM)
MIC50 (μg/mL) S. aureus ([1]; listed as chrysophaentin 1): 1.8 ± 0.6 µg/mL (≈ 2.65 µM)
zone of inhibition at 2 µg/disc ([2]; Enterococcus faecium, at 2 μg/disk): 10 mm
Agar disk diffusion (μg/disk) VREF ([2]; Lowest concentrations leading to 8-10 mm zones of inhibition): 2 μg/disk
MIC50 ([3]; Staphylococcus aureus, read-out: MIC50 (μg/mL) MRSA): 1.5 ± 0.7 µg/mL (≈ 2.21 µM)
MIC50 (μg/mL) MRSA [3]: 1.5 ± 0.7 µg/mL (≈ 2.21 µM)
MIC50 (μg/mL) MRSA ([3]; listed as Chrysophaentin 1): 1.8 ± 0.6 µg/mL (≈ 2.65 µM)
MIC50 (μg/mL) MRSA ([3]; listed as chrysophaentin 1): 1.5 ± 0.7 µg/mL (≈ 2.21 µM)
IC50 (recombinant E. coli FtsZ; IC50, inhibition of GTPase activity of FtsZ (molar), value in brackets): 9.9 µM
IC50 (recombinant E. coli FtsZ; IC50, inhibition of GTPase activity of FtsZ): 9.88 µM
concentration without cytotoxicity, BSC-1 [4]: > 100 µg/mL
selectivity for FtsZ over tubulin (tubulin): ≥ 15 fold
effect on tubulin polymerization (tubulin; listed as chrysophaentin 1): no effect; also recorded: does not affect
effect on tubulin polymerization (tubulin; listed as compound 1): no effect
tubulin polymerization velocity v (tubulin; chrysophaentin 1 at 150 μM, paclitaxel, nocodazole at standardized concentrations): 49 min⁻¹
